Columns and labels:
[1] = Toxicity observation in xenograft study; assay type: in vivo; details: xenograft nude mice, 20 mg/kg orally
Method: (§1) All animals were maintained in germ-free environments, and the study was carried out per IACUC guidelines that the University of Louisville authorized. Athymic nude Balb/c mice (nu/nu) were obtained from The Jackson Laboratory at 6 weeks of age. C4-2B and 22Rv1 cells (1–1.5 × 10^6, approximately) were injected into separate flanks of the mice (n = 6) for subcutaneous tumor xenograft studies using a final volume of 100 μL of phosphate-buffered saline and Matrigel (1:1). Once the tumors reached ~50–100 mm^3, the mice were randomly divided into two groups; one group received a vehicle and the other groups received SB1-46 (20 mg/kg) orally for […] for 4 weeks. Mice were monitored twice weekly, and tumor volumes were measured once a week.
It has been reported that the inhibition of AR-mediated survival signaling by small molecules results in either cell cycle arrest or the induction of apoptosis in CRPC cells. Our studies also observed the induction of pro-apoptotic machinery and concomitant downregulation of pro-survival signaling in SBI-46-treated CRPC cells.

C4-2B cells [2] = assay: Annexin V-FITC / PI apoptosis assay; assay type: cell-based, human; details: p = 0.01
Excerpt: As previously described, apoptosis was detected using the annexin V-fluorescein isothiocyanate (FITC) versus propidium iodide (PI) assay (FITC Annexin V Apoptosis Detection Kit I, BD Pharminogen).

C4-2B cells [3] = assay: Cell viability, Alamar blue assay; assay type: cell-based; details: Homo sapiens; treated for 24 h; read-out: growth inhibition IC50, C4-2B
Method: (§2) The effect of the treatments on prostate cancer and normal prostate epithelial cells’ (LNCaP, 22Rv1, C4-2B, PC3, and RWPE1) viability was evaluated using the Alamar blue assay. Cells were seeded into 96-well plates, and after growing to 60–75% confluency, they were treated with vehicle control (DMSO, Sigma Aldrich, St. Louis, MO, USA) or various concentrations of SBI-46 in respective media for 24 h. At the termination of exposure, cells were incubated with 100 μL of 3% Alamar Blue solution in a complete growth medium at 37 °C for 2 h. Absorbance was measured, and data were analyzed following the manufacturer’s instructions (Life Technologies Corporation, Eugene, OR, USA).

LNCaP cells [4] = assay: Cell viability, Alamar blue assay; assay type: cell-based; details: Homo sapiens, treated for 24 h, read-out: growth inhibition IC50, LNCaP
Method: as §2

22Rv1 cells [5] = assay: Cell viability, Alamar blue assay; assay type: cell-based; details: Homo sapiens, treated for 24 h, read-out: growth inhibition IC50, 22Rv1
Method: as §2

PC-3 cells = assay: Cell viability, Alamar blue assay; assay type: cell-based; details: treated for 24 h
Method: as §2

HDAC6 = target: T1, HDAC6 (Homo sapiens, UniProt Q9UBN7); assay: HDAC inhibition, fluorescence-based assay (BPS Bioscience); assay type: biochemical; details: HDAC6 versus HDAC1
T1 construct: purchased BPS Bioscience (contract research organization that ran the assay)
T1 sequence (Q9UBN7 1-1215): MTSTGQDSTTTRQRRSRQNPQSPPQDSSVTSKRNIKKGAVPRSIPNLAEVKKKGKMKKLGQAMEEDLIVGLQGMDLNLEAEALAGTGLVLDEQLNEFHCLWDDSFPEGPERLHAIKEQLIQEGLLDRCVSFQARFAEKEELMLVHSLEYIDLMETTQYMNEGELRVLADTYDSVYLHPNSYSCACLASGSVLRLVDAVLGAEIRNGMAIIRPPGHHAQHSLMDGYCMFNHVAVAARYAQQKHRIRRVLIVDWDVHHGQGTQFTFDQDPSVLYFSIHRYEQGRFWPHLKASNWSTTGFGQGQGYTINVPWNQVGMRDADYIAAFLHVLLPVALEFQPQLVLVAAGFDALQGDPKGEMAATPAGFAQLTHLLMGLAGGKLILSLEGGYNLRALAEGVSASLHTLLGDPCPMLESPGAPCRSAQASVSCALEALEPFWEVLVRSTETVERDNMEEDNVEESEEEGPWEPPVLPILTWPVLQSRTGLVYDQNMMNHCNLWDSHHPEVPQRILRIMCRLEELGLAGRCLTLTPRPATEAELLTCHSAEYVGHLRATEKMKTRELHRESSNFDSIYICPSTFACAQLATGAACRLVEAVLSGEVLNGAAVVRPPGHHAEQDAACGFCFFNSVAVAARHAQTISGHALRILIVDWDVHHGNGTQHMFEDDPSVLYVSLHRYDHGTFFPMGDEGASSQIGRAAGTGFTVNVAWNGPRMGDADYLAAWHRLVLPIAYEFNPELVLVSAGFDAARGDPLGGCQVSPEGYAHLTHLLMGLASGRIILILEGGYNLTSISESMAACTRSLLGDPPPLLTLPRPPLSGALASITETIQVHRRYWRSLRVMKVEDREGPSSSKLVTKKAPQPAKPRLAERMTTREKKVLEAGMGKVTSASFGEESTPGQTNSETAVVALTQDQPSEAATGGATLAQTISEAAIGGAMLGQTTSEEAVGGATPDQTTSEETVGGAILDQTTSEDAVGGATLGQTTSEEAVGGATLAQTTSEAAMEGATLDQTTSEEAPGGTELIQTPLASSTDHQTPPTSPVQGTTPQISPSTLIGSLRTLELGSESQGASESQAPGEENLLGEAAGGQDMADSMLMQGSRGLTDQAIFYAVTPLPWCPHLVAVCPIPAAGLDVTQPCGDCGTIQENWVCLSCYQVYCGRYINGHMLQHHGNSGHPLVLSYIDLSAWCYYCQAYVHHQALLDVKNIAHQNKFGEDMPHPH
Method: In vitro HDAC inhibition was performed by the contract research organization (CRO) BPS Bioscience while an AR-binding assay was performed by Eurofins Panlabs. (St. Charles, MO, USA). These assays were performed through contract agreements with these CROs.

C4-2B xenograft tumors = assay: Subcutaneous xenograft study in nude mice; assay type: in vivo; details: 20 mg/kg b.w. orally, five days/week for four weeks
Method: as §1
(§3) Finally, in a nude mice model, we evaluated the efficacy of orally administered SBI-46 in xenograft tumors from 22Rv1 and C4-2B cells. Athymic BALB/c nude mice were subcutaneously injected with 22Rv1 and C4-2B (1 × 10^6 cells), and when the tumors reached 50–100 mm^3, either the vehicle or SBI-46 (20 mg/kg b.w.) were given orally for five days/week for four weeks.

22Rv1 xenograft tumors = assay: Subcutaneous xenograft study in nude mice; assay type: in vivo; details: 20 mg/kg b.w. orally, five days/week for four weeks
Method: as §1, §3

RWPE-1 cells = assay type: cell-based
Method: as §2

VERO cells = assay: cells; assay type: cell-based
Method: (§4) Human PCa cells (LNCaP and 22Rv1) and normal prostate epithelial (RWPE-1) and kidney (HEK-293 and VERO) cells were obtained from American […] (ATCC, Manassas, VA, USA). C4-2B was obtained from the ViroMed Laboratories (Minneapolis, MN). The cells were grown on a specified medium previously described. Dihydrotestosterone (DHT) (1 nM) (Cerilliant, TX, USA) studies were performed in phenol red-free RPMI1640 supplemented with 10% charcoal-stripped FBS (Gemini, West Sacramento, CA, USA).

HEK-293 cells = assay: cells; assay type: cell-based
Method: as §4

[6] = system: acetylated H4 and tubulin in LNCaP cells; assay: Western blot of H4 and tubulin acetylation (intracellular HDAC inhibition); assay type: cell-based, Human; details: 0.5 and 5 µM, 6 h
Method: To probe H4 and tubulin acetylation status, LNCaP cells were seeded into a 6-well plate at 1 × 10^6/well in RPMI for 24–48 h until the confluency reached 80%. […] Cells were treated for 6 h and scraped out of the well. The cells were washed with cold PBS three times and lysed with RIPA buffer (110 μL) (VWR, VWRVN653—100 mL) containing phosphatase inhibitor (Fisher Thermo, A32957, Waltham, MA, USA) and protease inhibitor (Fisher Thermo, A32955). The cell lysates were vortexed for 15 s, followed by sonication for 90 s. The lysates were then centrifuged at 14,000 rpm for 10 min, and the supernatants were collected. The total protein concentration was determined using a BCA protein assay kit (BioVision, K813-2500, Milpitas, CA, USA). Based on the results from the BCA assay, the lysates were diluted to make an equal protein concentration, and 20 μg of each lysate was loaded to each well of the TGX MIDI 4–20% gel (Biorad, cat. 5671093, Hercules, CA, USA) and ran at 150 V for 70 min. […]

LNCaP cells [7] = assay: Soft agar colony formation assay; assay type: cell-based, Human; details: p = 0.001
Excerpt: (§5) The CytoSelectTM 96-well In Vitro Tumor Sensitivity Assay Kit was used to perform the colony formation assay to detect anchorage-independent growth (Cell Biolabs, Inc., San Diego, CA, USA). LNCaP, C4-2B, and 22Rv1 cells (5 × 10^3 cells) that had been exposed to either the vehicle or SBI-46 were harvested and used for the assay following the manufacturer’s instructions. Colonies were manually counted after being stained with 0.005% crystal violet after ten days.

22Rv1 cells [8] = assay: Soft agar colony formation assay; assay type: cell-based, Human; details: p = 0.001
Excerpt: as §5

[9] = system: AR-FL, AR-V7 and PSA expression in CRPC cells; assay: Western blot of AR-FL, AR-V7 and PSA expression; assay type: cell-based, Human
C4-2B cells [10] = assay: Soft agar colony formation assay; assay type: cell-based, human; details: p = 0.001
Excerpt: as §5

CC1(C)C(=O)N(c2ccc(C#N)c(C(F)(F)F)c2)C(=O)N1Cc1ccc(-c2cn(CCCCCCCC(=O)NO)nn2)cc1F [SBI-46]
toxicity in vivo, gross pathological examination of vital organs [1]: not toxic
induction of apoptosis (annexin V-FITC staining) (C4-2B cells [2]): 18%
IC50 (C4-2B cells [3]): 480 nM
IC50 (LNCaP cells [4]): 500 nM
IC50 (22Rv1 cells [5]): 560 nM
effect on viability of AR-null PC-3 cells (PC-3 cells): not effective
selectivity for HDAC6 (HDAC6): ~ 4 fold
tumor volume and weight, C4-2B xenograft (C4-2B xenograft tumors): significant decrease
tumor volume and weight, 22Rv1 xenograft (22Rv1 xenograft tumors): significant decrease
toxicity in normal prostate epithelial cell line RWPE-1 (RWPE-1 cells): no significant toxicity
toxicity in kidney cell line VERO (VERO cells): no significant toxicity
IC50 (VERO cells; Chlorocebus sabaeus, Vero, Figure 1B): 40 ± 4.57 µM
toxicity in kidney cell line HEK-293 (HEK-293 cells): no significant toxicity
IC50 (HEK-293 cells; Homo sapiens, HEK293, Figure 1B): 16.4 ± 2.22 µM
acetylation status of H4 and α-tubulin [6]: dose-dependent upregulation of acetylated H4 and tubulin
colony-forming ability, LNCaP (LNCaP cells [7]): reduced the colony-forming ability
colony-forming ability, 22Rv1 (22Rv1 cells [8]): reduced the colony-forming ability
expressions of AR-FL and AR-V7 [9]: downregulated
colony-forming ability, C4-2B (C4-2B cells [10]): reduced the colony-forming ability
